Drawing on patent US11447465B2, “Pharmaceutical compounds for treatment of medical disorders” (Achillion Pharmaceuticals, Inc., priority 2017, dated 2022), this text covers IC50 for 16 compounds.

The target of the test is Human Factor D (Homo sapiens (Human), UniProt P00746). As to the kind of experiment: Human Factor D Assay. In kind it is biochemical. To be noted: Table 7; read-out: IC5 (Stars). A digest of the protocol: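 Serum-purified human factor D (80 nM final) preincubated with compound 5 min at room temperature in 50 mM Tris, 1 M NaCl, pH 7.5. Z-L-Lys-SBzl and DTNB added at 100 μM each; A405 followed every 30 s for 30 min. IC50 by nonlinear regression of rates.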
Sequence of Human Factor D (P00746 26-253): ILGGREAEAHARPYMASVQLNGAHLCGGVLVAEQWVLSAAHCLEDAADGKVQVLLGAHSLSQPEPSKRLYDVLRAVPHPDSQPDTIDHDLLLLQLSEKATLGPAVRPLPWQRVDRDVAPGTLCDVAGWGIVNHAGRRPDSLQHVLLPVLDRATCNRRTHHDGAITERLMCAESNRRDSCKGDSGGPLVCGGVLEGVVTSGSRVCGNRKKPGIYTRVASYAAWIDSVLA

With `CC(=O)c1cc(CC(=O)N2C[C@H](F)C[C@H]2C(=O)Nc2cccc(-c3ccccc3Cl)c2F)cc(-c2cnc(C)nc2)c1` [Compound T-107, (2S,4R)-1-(2-(3-acetyl-5-(2-methylpyrimidin-5-yl)phenyl)acetyl)-N-(2′-chloro-2-fluoro-[1,1′-biphenyl]-3-yl)-4-fluoropyrrolidine-2-carboxamide], the IC50 was less than 1000 nM. In the case of `COc1ncc(-c2cc(CC(=O)N3C[C@H](F)C[C@H]3C(=O)Nc3cccc(Br)n3)cc(-c3cnc(OC)nc3)c2)cn1` [Compound T-108, (2S,4R)-1-(2-(3,5-bis(2-methoxypyrimidin-5-yl)phenyl)acetyl)-N-(6-bromopyridin-2-yl)-4-fluoropyrrolidine-2-carboxamide] it was greater than 10000 nM; in that of `COc1ncc(-c2cc(CC(=O)N3[C@H](C(=O)Nc4nc(Br)ccc4C)C[C@@]4(C)C[C@@H]34)cc(-c3cnc(OC)nc3)c2)cn1` [Compound T-109, (1R,3S,5R)-2-(2-(3,5-bis(2-methoxypyrimidin-5-yl)phenyl)acetyl)-N-(6-bromo-3-methylpyridin-2-yl)-5-methyl-2-azabicyclo[3.1.0]hexane-3-carboxamide], greater than 10000 nM.

Turning to `COc1ncc(-c2cc(CC(=O)N3C[C@H](F)C[C@H]3C(=O)Nc3cccc(-c4ccccc4Cl)c3F)cc(-c3cnc(OC)nc3)c2)cn1` [Compound T-110, (2S,4R)-1-(2-(3,5-bis(2-methoxypyrimidin-5-yl)phenyl)acetyl)-N-(2′-chloro-2-fluoro-[1,1′-biphenyl]-3-yl)-4-fluoropyrrolidine-2-carboxamide], the IC50 is greater than 10000 nM. Regarding `Cc1ncc(-c2cc(CC(=O)N3C[C@H](F)C[C@H]3C(=O)Nc3cccc(Br)n3)cc(C(N)=O)c2)cn1` [Compound T-111, (2S,4R)-N-(6-bromopyridin-2-yl)-1-(2-(3-carbamoyl-5-(2-methylpyrimidin-5-yl)phenyl)acetyl)-4-fluoropyrrolidine-2-carboxamide], the IC50 was 1000 to 10000 nM. In the case of `Cc1ncc(-c2cc(CC(=O)N3C[C@H](F)C[C@H]3C(=O)Nc3cccc(-c4ccccc4Cl)c3F)cc(C(N)=O)c2)cn1` [Compound T-112, (2S,4R)-1-(2-(3-carbamoyl-5-(2-methylpyrimidin-5-yl)phenyl)acetyl)-N-(2′-chloro-2-fluoro-[1,1′-biphenyl]-3-yl)-4-fluoropyrrolidine-2-carboxamide] it was less than 1000 nM; in that of `Cc1ncc(-c2cc(CC(=O)N3[C@H](C(=O)Nc4nc(Br)ccc4C)C[C@@]4(C)C[C@@H]34)cc(C(N)=O)c2)cn1` [Compound T-113, (1R,3S,5R)-N-(6-bromo-3-methylpyridin-2-yl)-2-(2-(3-carbamoyl-5-(2-methylpyrimidin-5-yl)phenyl)acetyl)-5-methyl-2-azabicyclo[3.1.0]hexane-3-carboxamide], 1000 to 10000 nM; in that of `Cc1ncc(-c2cc(C#N)cc(CC(=O)N3C[C@H](F)C[C@H]3C(=O)Nc3cccc(Br)n3)c2)cn1` [Compound T-114, (2S,4R)-N-(6-bromopyridin-2-yl)-1-(2-(3-cyano-5-(2-methylpyrimidin-5-yl)phenyl)acetyl)-4-fluoropyrrolidine-2-carboxamide], 1000 to 10000 nM. In the case of `Cc1ncc(-c2cc(C#N)cc(CC(=O)N3[C@H](C(=O)Nc4nc(Br)ccc4C)C[C@@]4(C)C[C@@H]34)c2)cn1` [Compound T-115, (1R,3S,5R)-N-(6-bromo-3-methylpyridin-2-yl)-2-(2-(3-cyano-5-(2-methylpyrimidin-5-yl)phenyl)acetyl)-5-methyl-2-azabicyclo[3.1.0]hexane-3-carboxamide] it was 1000 to 10000 nM; in that of `Cc1ncc(-c2cc(C#N)cc(CC(=O)N3C[C@H](F)C[C@H]3C(=O)Nc3cccc(-c4ccccc4Cl)c3F)c2)cn1` [Compound T-116, (2S,4R)-N-(2′-chloro-2-fluoro-[1,1′-biphenyl]-3-yl)-1-(2-(3-cyano-5-(2-methylpyrimidin-5-yl)phenyl)acetyl)-4-fluoropyrrolidine-2-carboxamide], less than 1000 nM. Take `Cc1ncc(-c2cc(CC(=O)N3[C@H](C(=O)Nc4nc(Br)ccc4C)C[C@@]4(C)C[C@@H]34)cc(-c3cnc(O)nc3)c2)cn1` [Compound T-117, (1R,3S,5R)-N-(6-bromo-3-methylpyridin-2-yl)-2-(2-(3-(2-hydroxypyrimidin-5-yl)-5-(2-methylpyrimidin-5-yl)phenyl)acetyl)-5-methyl-2-azabicyclo[3.1.0]hexane-3-carboxamide]: the IC50 was greater than 10000 nM. In the case of `Cc1ncc(-c2cc(CC(=O)N3C[C@H](F)C[C@H]3C(=O)Nc3cccc(-c4ccccc4Cl)c3F)cc(-c3cnc(O)nc3)c2)cn1` [Compound T-118, (2S,4R)-N-(2′-chloro-2-fluoro-[1,1′-biphenyl]-3-yl)-4-fluoro-1-(2-(3-(2-hydroxypyrimidin-5-yl)-5-(2-methylpyrimidin-5-yl)phenyl)acetyl)pyrrolidine-2-carboxamide] it was greater than 10000 nM; in that of `Cc1ncc(-c2cc(CC(=O)N3C[C@H](F)C[C@H]3C(=O)Nc3cccc(-c4ccccc4Cl)c3F)cc(OCC(=O)O)c2)cn1` [Compound T-120, 2-(3-(2-((2S,4R)-2-((2′-chloro-2-fluoro-[1,1′-biphenyl]-3-yl)carbamoyl)-4-fluoropyrrolidin-1-yl)-2-oxoethyl)-5-(2-methylpyrimidin-5-yl)phenoxy)acetic acid], 1000 to 10000 nM. In the case of `C#CCNC(=O)c1nn(CC(=O)N2[C@H](C(=O)Nc3nc(Br)ccc3C)C[C@@]3(C)C[C@@H]23)c2ccc(-c3cnc(C)nc3)cc12` [Compound T-121, 1-(2-((1R,3S,5R)-3-((6-bromo-3-methylpyridin-2-yl)carbamoyl)-5-methyl-2-azabicyclo[3.1.0]hexan-2-yl)-2-oxoethyl)-5-(2-methylpyrimidin-5-yl)-N-(prop-2-yn-1-yl)-1H-indazole-3-carboxamide] it was less than 1000 nM; in that of `Cc1ccc(Br)nc1NC(=O)[C@@H]1C[C@@]2(CNC(=O)COCCOCCNC(=O)COCCOCCNC(=O)CC[C@H](NC(=O)CCCCCCCCCCCCCCCCC(=O)O)C(=O)O)C[C@H]2N1C(=O)Cn1nc(C(N)=O)c2ccc(C(=O)NS(=O)(=O)C3CC3)cc21` [Compound T-126, (S)-1-((1R,3S,5R)-3-((6-bromo-3-methylpyridin-2-yl)carbamoyl)-2-(2-(3-carbamoyl-6-((cyclopropylsulfonyl)carbamoyl)-1H-indazol-1-yl)acetyl)-2-azabicyclo[3.1.0]hexan-5-yl)-24-carboxy-3,12,21,26-tetraoxo-5,8,14,17-tetraoxa-2,11,20,25-tetraazatritetracontan-43-oic acid], less than 1000 nM; in that of `CC(=O)c1nn(CC(=O)N2[C@H](C(=O)Nc3nc(Br)ccc3C)C[C@@]3(CNC(=O)COCCOCCNC(=O)COCCOCCNC(=O)CCCCCCCCCCCCCCCCC(=O)O)C[C@@H]23)c2ccc(OC(=O)NC3CC3)cc12` [Compound T-128, 1-((1R,3S,5R)-2-(2-(3-acetyl-5-((cyclopropylcarbamoyl)oxy)-1H-indazol-1-yl)acetyl)-3-((6-bromo-3-methylpyridin-2-yl)carbamoyl)-2-azabicyclo[3.1.0]hexan-5-yl)-3,12,21-trioxo-5,8,14,17-tetraoxa-2,11,20-triazaoctatriacontan-38-oic acid], less than 1000 nM.
